Test results reported in PubChem BioAssay AID270 (DTP/NCI, 2004).
Where “and” joins values, the source holds several entries; their conditions need not be identical. Equal entries are not always repeated. Inconclusive results are not listed.

Test system: BDF1 mice, s.c. Lewis lung carcinoma, T/C %
Experiment: NCI In Vivo Anticancer Drug Screen. Data for tumor model Lewis Lung Carcinoma (subcutaneous) in B6D2F1 (BDF1) mice
Summary of the method: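 First, mice carry a transplantable tumor. Next, groups receive either compound or vehicle. Finally, survival or tumor dimensions in the dosed animals are divided by the corresponding control figure.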

For CCCC(=O)NC1=C(N2CC2)C(=O)C(NC(=O)CCC)=C(N2CC2)C1=O, the T/C (endpoint: mean tumor weight, dose: 0.8 mg/kg/injection, schedule: Q01DX011 (ip), vehicle: other, higher = larger tumour) was 81 % of control, the T/C (endpoint: mean tumor weight, dose: 1.5 mg/kg/injection, schedule: Q01DX011 (ip), vehicle: other, higher = larger tumour) was 42 % of control and the T/C (endpoint: mean tumor weight, dose: 3.0 mg/kg/injection, schedule: Q01DX011 (ip), vehicle: other, higher = larger tumour) was 28 % of control.
In the case of Oc1cc(N2CC2)c(O)cc1N1CC1, the T/C (endpoint: median survival time, dose: 0.22 mg/kg/injection, schedule: Q01DX009 (ip), vehicle: saline, higher = longer survival) is reported as 106 % of control, the T/C (endpoint: median survival time, dose: 0.44 mg/kg/injection, schedule: Q01DX009 (ip), vehicle: saline, higher = longer survival) is reported as 105 % of control and the T/C (endpoint: median survival time, dose: 0.68 mg/kg/injection, schedule: Q01DX009 (ip), vehicle: saline, higher = longer survival) is reported as 110 % of control. For the same molecule, the T/C (endpoint: median survival time, dose: 1.0 mg/kg/injection, schedule: Q01DX009 (ip), vehicle: saline, higher = longer survival) was 90 % of control.
With CC(C)CCC[C@@H](C)[C@H]1CC[C@H]2[C@@H]3CC=C4C[C@@H](O)CC[C@]4(C)[C@H]3CC[C@]12C the T/C (endpoint: median survival time, dose: 100.0 mg/kg/injection, schedule: Q01DX009 (ip), vehicle: Klucel (hydroxypropylcellulose) (HPC), higher = longer survival) was 100 % of control, the T/C (endpoint: median survival time, dose: 200.0 mg/kg/injection, schedule: Q01DX009 (ip), vehicle: Klucel (hydroxypropylcellulose) (HPC), higher = longer survival) was 90 % of control and the T/C (endpoint: median survival time, dose: 400.0 mg/kg/injection, schedule: Q01DX009 (ip), vehicle: Klucel (hydroxypropylcellulose) (HPC), higher = longer survival) was 90 % of control. The T/C (endpoint: median survival time, dose: 800.0 mg/kg/injection, schedule: Q01DX009 (ip), vehicle: Klucel (hydroxypropylcellulose) (HPC), higher = longer survival) was 89 % of control.
For OCc1ccccc1OC1OC(CO)C(O)C(O)C1O (stereo not drawn), the T/C (endpoint: mean tumor weight, dose: 100.0 mg/kg/injection, schedule: Q01DX011 (ip), vehicle: carboxymethylcellulose (CMC), higher = larger tumour) was 106 % of control, the T/C (endpoint: mean tumor weight, dose: 200.0 mg/kg/injection, schedule: Q01DX011 (ip), vehicle: carboxymethylcellulose (CMC), higher = larger tumour) was 86 % of control and the T/C (endpoint: mean tumor weight, dose: 400.0 mg/kg/injection, schedule: Q01DX011 (ip), vehicle: carboxymethylcellulose (CMC), higher = larger tumour) was 100 % of control.
In the case of CN1C(=O)C=CC1=O, the T/C (endpoint: median survival time, dose: 0.5 mg/kg/injection, schedule: Q02DX009 (ip), vehicle: saline, higher = longer survival) is reported as 113 % of control, the T/C (endpoint: median survival time, dose: 1.0 mg/kg/injection, schedule: Q02DX009 (ip), vehicle: saline, higher = longer survival) is reported as 103 % of control and the T/C (endpoint: median survival time, dose: 2.0 mg/kg/injection, schedule: Q02DX009 (ip), vehicle: saline, higher = longer survival) is reported as 100 % of control. The T/C (endpoint: median survival time, dose: 4.0 mg/kg/injection, schedule: Q02DX009 (ip), vehicle: saline, higher = longer survival) was 94 % of control.
In the case of CCN(CC)C(=S)S, the T/C (endpoint: mean tumor weight, dose: 125.0 mg/kg/injection, schedule: Q01DX011 (ip), vehicle: saline, higher = larger tumour) is reported as 86 % of control, the T/C (endpoint: median survival time, dose: 125.0 mg/kg/injection, schedule: Q01DX011 (ip), vehicle: saline, higher = longer survival) is reported as 123 % of control and 124 % of control and the T/C (endpoint: median survival time, dose: 250.0 mg/kg/injection, schedule: Q01DX011 (ip), vehicle: saline, higher = longer survival) is reported as 112 % of control and 116 % of control. For the same molecule, the T/C (endpoint: median survival time, dose: 500.0 mg/kg/injection, schedule: Q01DX011 (ip), vehicle: saline, higher = longer survival) was 104 % of control and 105 % of control and the T/C (endpoint: median survival time, dose: 1000.0 mg/kg/injection, schedule: Q01DX011 (ip), vehicle: saline, higher = longer survival) was 102 % of control and 105 % of control.
For O=S(=O)(O)c1cc(O)ccc1O, the T/C (endpoint: mean tumor weight, dose: 133.0 mg/kg/injection, schedule: Q01DX011 (ip), vehicle: saline, higher = larger tumour) was 66 % of control, the T/C (endpoint: mean tumor weight, dose: 300.0 mg/kg/injection, schedule: Q01DX011 (ip), vehicle: saline, higher = larger tumour) was 99 % of control and 119 % of control and the T/C (endpoint: mean tumor weight, dose: 600.0 mg/kg/injection, schedule: Q01DX011 (ip), vehicle: saline, higher = larger tumour) was 67 % of control.
For C=C/C(C)=C/[C@H](C)C(=O)C[C@H](O)CC1CC(=O)NC(=O)C1, the T/C (endpoint: median survival time, dose: 6.25 mg/kg/injection, schedule: Q01DX009 (ip), vehicle: saline with Tween-80, higher = longer survival) was 95 % of control, the T/C (endpoint: median survival time, dose: 12.5 mg/kg/injection, schedule: Q01DX009 (ip), vehicle: saline with Tween-80, higher = longer survival) was 98 % of control and the T/C (endpoint: median survival time, dose: 12.5 mg/kg/injection, schedule: Q04DX003 (ip), vehicle: saline with Tween-80, higher = longer survival) was 98 % of control. For the same molecule, the T/C (endpoint: median survival time, dose: 25.0 mg/kg/injection, schedule: Q01DX009 (ip), vehicle: saline with Tween-80, higher = longer survival) was 97 % of control, the T/C (endpoint: median survival time, dose: 25.0 mg/kg/injection, schedule: Q04DX003 (ip), vehicle: saline with Tween-80, higher = longer survival) was 111 % of control and the T/C (endpoint: median survival time, dose: 50.0 mg/kg/injection, schedule: Q04DX003 (ip), vehicle: saline with Tween-80, higher = longer survival) was 92 % of control. For the same molecule, the T/C (endpoint: median survival time, dose: 100.0 mg/kg/injection, schedule: Q04DX003 (ip), vehicle: saline with Tween-80, higher = longer survival) was 101 % of control.
